Test results: EP3035931B1, “COMPOSITION FOR REDUCING NERVOUS SYSTEM INJURY AND METHOD OF MAKING AND USE THEREOF” (Morehouse School of Medicine, priority 2013, dated 2015)
Substitutions are numbered along the chain they refer to. Read-outs that look alike come from different tables or passages of the source.

Columns and labels:
[1] = target: T1, ASICs (Mus musculus, UniProt Q6NXK8); assay type: cell-based; settings: cultured mouse cortical neurons; n=8; read-out: IC50, dose-dependent blockade of ASIC currents
T1 sequence (Q6NXK8 1-526): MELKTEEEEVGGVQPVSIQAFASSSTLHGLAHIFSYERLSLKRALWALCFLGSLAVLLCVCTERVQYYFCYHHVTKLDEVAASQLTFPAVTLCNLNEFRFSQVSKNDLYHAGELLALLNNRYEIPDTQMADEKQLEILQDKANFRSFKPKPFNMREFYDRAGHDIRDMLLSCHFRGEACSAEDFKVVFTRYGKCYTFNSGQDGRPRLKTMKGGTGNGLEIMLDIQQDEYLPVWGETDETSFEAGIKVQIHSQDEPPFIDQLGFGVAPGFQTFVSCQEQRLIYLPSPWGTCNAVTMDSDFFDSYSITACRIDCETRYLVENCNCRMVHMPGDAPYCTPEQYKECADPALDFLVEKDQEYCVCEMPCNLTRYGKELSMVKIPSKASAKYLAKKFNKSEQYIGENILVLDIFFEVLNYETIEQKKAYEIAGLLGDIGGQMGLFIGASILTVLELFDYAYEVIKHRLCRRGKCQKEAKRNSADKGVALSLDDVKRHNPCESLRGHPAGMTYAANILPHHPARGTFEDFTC
T1 sequence (Q925H0 1-512 partner): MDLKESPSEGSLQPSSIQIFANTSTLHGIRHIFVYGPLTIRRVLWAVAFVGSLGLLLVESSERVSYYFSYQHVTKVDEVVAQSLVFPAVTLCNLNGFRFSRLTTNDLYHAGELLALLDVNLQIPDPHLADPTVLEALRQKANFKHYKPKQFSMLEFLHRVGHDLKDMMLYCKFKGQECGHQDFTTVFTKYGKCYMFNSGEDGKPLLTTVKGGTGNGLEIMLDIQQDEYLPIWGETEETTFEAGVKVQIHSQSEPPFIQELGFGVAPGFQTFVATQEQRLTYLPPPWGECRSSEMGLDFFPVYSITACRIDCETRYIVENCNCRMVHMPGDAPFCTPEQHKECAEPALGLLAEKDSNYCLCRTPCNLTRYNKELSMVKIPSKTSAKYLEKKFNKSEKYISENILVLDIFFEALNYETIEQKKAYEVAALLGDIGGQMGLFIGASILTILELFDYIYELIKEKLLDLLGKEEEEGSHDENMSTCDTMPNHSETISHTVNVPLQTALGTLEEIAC

[2] = assay type: in vivo, rats; settings: n=11
[3] = target: T2, ASIC2a (Homo sapiens, UniProt Q16515); experiment: Blockade of ASIC 2a current expressed in CHO cells; assay type: cell-based; settings: CHO cells, FIG. 17
T2 construct: expressed in transfected cells; host or cells: CHO
T2 sequence (Q16515 1-512): T1 sequence (Q925H0 1-512 partner) with T132S, E471D, M479V, A503T

[4] = Mouse 60 min MCAO, intravenous injection, infarct volume; assay type: in vivo; settings: mice, intravenous injection 1, 3 or 5 hours after MCAO, FIG. 19
[5] = test system: Na^+/Ca^2+ ion exchanger; settings: cited from earlier work

N=C(N)NC(=O)c1nc(Cl)c(N)nc1N [amiloride]
IC50 [1]: 16.4 ± 4.1 µM
infarct volume [2]: 229.7 ± 41.1 mm^3
block of ASIC2a current [3]: dose-dependent
infarct volume [4]: effectively reduce infarct volume
IC50 [5]: 1100 µM
